Assay results reported in patent publication US9962369B2, “Methods and compositions for transdermal delivery” (SPRAYABLE HOLDINGS, INC., priority 2014, dated 2018).

Experiments:
[1] = Solubility of AI compound in AI-helper composition (AI compound added until saturated); format: physicochemical; settings: water
Description: Solubility was tested by adding small amounts of AI compound to a set volume of an AI-helper composition at a certain temperature until the AI-helper composition was saturated with the AI compound, and measuring the amount of the AI compound added to calculate the solubility of the AI compound in the AI-helper composition at the temperature.

human skin tissue = experiment: Penetration rate of AI compound in AI-helper composition through human skin in vitro, modified Franz cells; format: in vitro ADME
Description: Penetration rate of AI compound in the AI-helper composition through human skin were measured in vitro by modified Franz cells. A Franz cell had two chambers: the top sample chamber and the bottom receiving chamber. The human skin tissue (450-500 μm thick) that separated the top and the receiving chambers was isolated from the anterior or posterior thigh areas.

clinical = settings: human, plasma, topical, 3 mg

## COc1ccc2[nH]cc(CCNC(C)=O)c2c1 [Melatonin]
[1]; tryptophan isopropyl ester•HA 10% w/v, HA = 1/2H2SO4, 20° C.
  Solubility of melatonin: >1.4% (w/v)
[1]; tryptophan isopropyl ester•HA 10% w/v, HA = 1/3H3PO4, 20° C.
  Solubility of melatonin: >1.2% (w/v)
[1]; tryptophan isopropyl ester•HA 10% w/v, HA = 2/3H3PO4, 20° C.
  Solubility of melatonin: >1.3% (w/v)
[1]; tryptophan isopropyl ester•HA 10% w/v, HA = Citric acid, 20° C.
  Solubility of melatonin: >1.2% (w/v)
[1]; tryptophan isopropyl ester•HA 10% w/v, HA = H2SO4, 20° C.
  Solubility of melatonin: >1.4% (w/v)
[1]; tryptophan isopropyl ester•HA 10% w/v, HA = HBr, 20° C.
  Solubility of melatonin: >1.4% (w/v)
[1]; tryptophan isopropyl ester•HA 10% w/v, HA = HCl, 20° C.
  Solubility of melatonin: >1.5% (w/v)
[1]; tryptophan isopropyl ester•HA 10% w/v, HA = HF, 20° C.
  Solubility of melatonin: >1.5% (w/v)
[1]; tryptophan isopropyl ester•HA 10% w/v, HA = HI, 20° C.
  Solubility of melatonin: >1.3% (w/v)
[1]; tryptophan isopropyl ester•HA 10% w/v, HA = acetic acid, 20° C.
  Solubility of melatonin: >1.4% (w/v)
[1]; tryptophan isopropyl ester•HA 10% w/v, HA = benzoic acid, 20° C.
  Solubility of melatonin: >1.3% (w/v)
[1]; tryptophan isopropyl ester•HA 10% w/v, HA = butyric acid, 20° C.
  Solubility of melatonin: >1.3% (w/v)
[1]; tryptophan isopropyl ester•HA 10% w/v, HA = lactic acid, 20° C.
  Solubility of melatonin: >1.4% (w/v)
[1]; tyrosine isopropyl ester•HA 10% w/v, HA = 1/2H2SO4, 20° C.
  Solubility of melatonin: >1% (w/v)
[1]; tyrosine isopropyl ester•HA 10% w/v, HA = 1/3H3PO4, 20° C.
  Solubility of melatonin: >1.0% (w/v)
[1]; tyrosine isopropyl ester•HA 10% w/v, HA = 2/3H3PO4, 20° C.
  Solubility of melatonin: >1.1% (w/v)
[1]; tyrosine isopropyl ester•HA 10% w/v, HA = H2SO4, 20° C.
  Solubility of melatonin: >1.2% (w/v)
[1]; tyrosine isopropyl ester•HA 10% w/v, HA = HBr, 20° C.
  Solubility of melatonin: >1.2% (w/v)
[1]; tyrosine isopropyl ester•HA 10% w/v, HA = HCl, 20° C.
  Solubility of melatonin: >1.3% (w/v)
[1]; tyrosine isopropyl ester•HA 10% w/v, HA = HF, 20° C.
  Solubility of melatonin: >1.3% (w/v)
[1]; tyrosine isopropyl ester•HA 10% w/v, HA = HI, 20° C.
  Solubility of melatonin: >1% (w/v)
[1]; tyrosine isopropyl ester•HA 10% w/v, HA = acetic acid, 20° C.
  Solubility of melatonin: >1.1% (w/v)
[1]; tyrosine isopropyl ester•HA 10% w/v, HA = benzoic acid, 20° C.
  Solubility of melatonin: >1% (w/v)
[1]; tyrosine isopropyl ester•HA 10% w/v, HA = butyric acid, 20° C.
  Solubility of melatonin: >1% (w/v)
[1]; tyrosine isopropyl ester•HA 10% w/v, HA = citric acid, 20° C.
  Solubility of melatonin: >1% (w/v)
[1]; tyrosine isopropyl ester•HA 10% w/v, HA = lactic acid, 20° C.
  Solubility of melatonin: >1.1% (w/v)
Human skin tissue; 1% melatonin (a suspension) without helper esters, 20° C.
  Skin penetration rate of melatonin: 1.153 ± 0.111 μg/cm^2/h
Human skin tissue; melatonin 1% w/v, Tryptophan isopropyl ester•HA 6% w/v, HA = 1/2H2SO4, water, 20° C.
  Skin penetration rate of melatonin: 15.928 ± 1.476 μg/cm^2/h
Human skin tissue; melatonin 1% w/v, Tryptophan isopropyl ester•HA 6% w/v, HA = 2/3H3PO4, water, 20° C.
  Skin penetration rate of melatonin: 15.691 ± 1.571 μg/cm^2/h
Human skin tissue; melatonin 1% w/v, Tryptophan isopropyl ester•HA 6% w/v, HA = Benzoic acid, water, 20° C.
  Skin penetration rate of melatonin: 14.665 ± 1.589 μg/cm^2/h
Human skin tissue; melatonin 1% w/v, Tryptophan isopropyl ester•HA 6% w/v, HA = Butyric acid, water, 20° C.
  Skin penetration rate of melatonin: 15.378 ± 1.598 μg/cm^2/h
Human skin tissue; melatonin 1% w/v, Tryptophan isopropyl ester•HA 6% w/v, HA = Citric acid, water, 20° C.
  Skin penetration rate of melatonin: 15.371 ± 1.287 μg/cm^2/h
Human skin tissue; melatonin 1% w/v, Tryptophan isopropyl ester•HA 6% w/v, HA = H2SO4, water, 20° C.
  Skin penetration rate of melatonin: 16.780 ± 1.891 μg/cm^2/h
Human skin tissue; melatonin 1% w/v, Tryptophan isopropyl ester•HA 6% w/v, HA = HBr, water, 20° C.
  Skin penetration rate of melatonin: 15.971 ± 1.785 μg/cm^2/h
Human skin tissue; melatonin 1% w/v, Tryptophan isopropyl ester•HA 6% w/v, HA = HCl, water, 20° C.
  Skin penetration rate of melatonin: 16.678 ± 1.567 μg/cm^2/h
Human skin tissue; melatonin 1% w/v, Tryptophan isopropyl ester•HA 6% w/v, HA = HF, water, 20° C.
  Skin penetration rate of melatonin: 16.165 ± 1.167 μg/cm^2/h
Human skin tissue; melatonin 1% w/v, Tryptophan isopropyl ester•HA 6% w/v, HA = HI, water, 20° C.
  Skin penetration rate of melatonin: 14.467 ± 1.183 μg/cm^2/h
Human skin tissue; melatonin 1% w/v, Tryptophan isopropyl ester•HA 6% w/v, HA = Lactic acid, water, 20° C.
  Skin penetration rate of melatonin: 15.897 ± 1.109 μg/cm^2/h
Human skin tissue; melatonin 1% w/v, Tyrosine isopropyl ester•HA 6% w/v, HA = 1/2H2SO4, water, 20° C.
  Skin penetration rate of melatonin: 15.978 ± 2.136 μg/cm^2/h
Human skin tissue; melatonin 1% w/v, Tyrosine isopropyl ester•HA 6% w/v, HA = 1/3H3PO4, water, 20° C.
  Skin penetration rate of melatonin: 15.848 ± 1.782 μg/cm^2/h
Human skin tissue; melatonin 1% w/v, Tyrosine isopropyl ester•HA 6% w/v, HA = 2/3H3PO4, water, 20° C.
  Skin penetration rate of melatonin: 16.156 ± 3.124 μg/cm^2/h
Human skin tissue; melatonin 1% w/v, Tyrosine isopropyl ester•HA 6% w/v, HA = Acetic acid, water, 20° C.
  Skin penetration rate of melatonin: 15.983 ± 3.471 μg/cm^2/h
Human skin tissue; melatonin 1% w/v, Tyrosine isopropyl ester•HA 6% w/v, HA = Benzoic acid, water, 20° C.
  Skin penetration rate of melatonin: 17.002 ± 3.257 μg/cm^2/h
Human skin tissue; melatonin 1% w/v, Tyrosine isopropyl ester•HA 6% w/v, HA = Butyric acid, water, 20° C.
  Skin penetration rate of melatonin: 16.125 ± 1.972 μg/cm^2/h
Human skin tissue; melatonin 1% w/v, Tyrosine isopropyl ester•HA 6% w/v, HA = Citric acid, water, 20° C.
  Skin penetration rate of melatonin: 16.246 ± 2.319 μg/cm^2/h
Human skin tissue; melatonin 1% w/v, Tyrosine isopropyl ester•HA 6% w/v, HA = H2SO4, water, 20° C.
  Skin penetration rate of melatonin: 16.632 ± 1.357 μg/cm^2/h
Human skin tissue; melatonin 1% w/v, Tyrosine isopropyl ester•HA 6% w/v, HA = HBr, water, 20° C.
  Skin penetration rate of melatonin: 16.578 ± 2.117 μg/cm^2/h
Human skin tissue; melatonin 1% w/v, Tyrosine isopropyl ester•HA 6% w/v, HA = HF, water, 20° C.
  Skin penetration rate of melatonin: 15.765 ± 1.946 μg/cm^2/h
Human skin tissue; melatonin 1% w/v, Tyrosine isopropyl ester•HA 6% w/v, HA = HI, water, 20° C.
  Skin penetration rate of melatonin: 15.863 ± 1.970 μg/cm^2/h
Human skin tissue; melatonin 1% w/v, Tyrosine isopropyl ester•HA 6% w/v, HA = Lactic acid, water, 20° C.
  Skin penetration rate of melatonin: 16.029 ± 2.467 μg/cm^2/h
Human skin tissue; no helper ester (None), melatonin 1 % w/v (suspension) in water, 20 °C
  Skin penetration rate of melatonin: 1.153 ± 0.111 μg/cm^2/h
Human skin tissue; no isoleucine ester (None), AI compound 0.5 % w/v (a suspension) in water, 20 °C
  Skin penetration rate of AI compound: 1.147 ± 0.123 μg/cm^2/h
Human skin tissue; no leucine ester (None), AI compound 0.5 % w/v (a suspension) in water, 20 °C
  Skin penetration rate of AI compound: 1.147 ± 0.123 μg/cm^2/h
Human skin tissue; no proline ester (None), melatonin 0.5 % w/v (suspension) in water, 20 °C
  Skin penetration rate of melatonin: 1.147 ± 0.123 μg/cm^2/h
Human skin tissue; no tryptophan ester (None), AI compound 1 % w/v (suspension) in water, 20 °C
  Skin penetration rate of AI compound: 1.153 ± 0.111 μg/cm^2/h
Human skin tissue; no tyrosine ester (None), melatonin 1 % w/v (suspension) in water, 20 °C
  Skin penetration rate of melatonin: 1.153 ± 0.111 μg/cm^2/h
Human skin tissue; with D-tryptophan ethyl ester hydrochloride 6 % w/v in water, AI compound 1 % w/v, 20 °C
  Skin penetration rate of AI compound: 16.011 ± 1.511 μg/cm^2/h
Human skin tissue; with D-tryptophan isopropyl ester hydrochloride 6 % w/v in water, AI compound 1 % w/v, 20 °C
  Skin penetration rate of AI compound: 16.451 ± 1.473 μg/cm^2/h
Human skin tissue; with D-tryptophan pentyl ester hydrochloride 6 % w/v in water, AI compound 1 % w/v, 20 °C
  Skin penetration rate of AI compound: 15.003 ± 1.513 μg/cm^2/h
Human skin tissue; with L-isoleucine ethyl ester hydrochloride 6 % w/v in water, AI compound 0.5 % w/v, 20 °C
  Skin penetration rate of AI compound: 9.012 ± 0.148 μg/cm^2/h
Human skin tissue; with L-isoleucine isopropyl ester hydrochloride 6 % w/v in water, AI compound 0.5 % w/v, 20 °C
  Skin penetration rate of AI compound: 9.015 ± 0.161 μg/cm^2/h
Human skin tissue; with L-isoleucine methyl ester hydrochloride 6 % w/v in water, AI compound 0.5 % w/v, 20 °C
  Skin penetration rate of AI compound: 8.712 ± 0.168 μg/cm^2/h
Human skin tissue; with L-isoleucine pentyl ester hydrochloride 6 % w/v in water, AI compound 0.5 % w/v, 20 °C
  Skin penetration rate of AI compound: 8.219 ± 0.201 μg/cm^2/h
Human skin tissue; with L-leucine ethyl ester hydrochloride 6 % w/v in water, AI compound 0.5 % w/v, 20 °C
  Skin penetration rate of AI compound: 9.101 ± 0.153 μg/cm^2/h
Human skin tissue; with L-leucine hexyl ester hydrochloride 6 % w/v in water, AI compound 0.5 % w/v, 20 °C
  Skin penetration rate of AI compound: 8.019 ± 0.181 μg/cm^2/h
Human skin tissue; with L-leucine isopropyl ester hydrochloride 6 % w/v in water, AI compound 0.5 % w/v, 20 °C
  Skin penetration rate of AI compound: 9.371 ± 0.137 μg/cm^2/h
Human skin tissue; with L-leucine methyl ester hydrochloride 6 % w/v in water, AI compound 0.5 % w/v, 20 °C
  Skin penetration rate of AI compound: 9.058 ± 0.131 μg/cm^2/h
Human skin tissue; with L-tryptophan butyl ester hydrochloride 6 % w/v in water, AI compound 1 % w/v, 20 °C
  Skin penetration rate of AI compound: 15.676 ± 1.574 μg/cm^2/h
Human skin tissue; with L-tryptophan isopropyl ester hydrochloride 6 % w/v in water, AI compound 1 % w/v, 20 °C
  Skin penetration rate of AI compound: 16.678 ± 1.567 μg/cm^2/h
Human skin tissue; with L-tryptophan pentyl ester hydrochloride 6 % w/v in water, AI compound 1 % w/v, 20 °C
  Skin penetration rate of AI compound: 15.012 ± 1.315 μg/cm^2/h
clinical
  concentration at 0 hr: 0 ng/mL
  concentration at 1 h: 1.4 ng/mL
  concentration at 1 hr: 1.6 ng/mL
  concentration at 2 h: 1.5 ng/mL
  concentration at 2 hr: 1.7 ng/mL
  concentration at 4 h: 1.5 ng/mL
  concentration at 4 hr: 1.8 ng/mL
  concentration at 8 h: 1.4 ng/mL
  concentration at 8 hr: 1.7 ng/mL
